# Test results as given in article PMC3368874, “Characterization of 4-HNE Modified L-FABP Reveals Alterations in Structural and Functional Dynamics” (PLoS ONE, 2012).
# Assays:
# 4-HNE adducted rL-FABP = biological target: T1, 4-HNE adducted rL-FABP (Mus musculus, UniProt P12710); experiment: Displacement of ANS by fatty acids, 1X 4-HNE treated rL-FABP; assay type: binding; conditions: for bi (counts inhibitable) / Ki: 1X 4-HNE (53.95 µM) treated rL-FABP; for Ki: read-out: ki (inhibition constant); for br (counts residual) / n (hill coefficient): 1X 4-HNE treated rL-FABP; for reduction of maximal binding to the FA by 4-HNE: 1X 4-HNE treated versus WT rL-FABP
# T1 construct: made in house; host or cells: Escherichia coli BL21 (DE3)
# T1 sequence (P12710 1-127): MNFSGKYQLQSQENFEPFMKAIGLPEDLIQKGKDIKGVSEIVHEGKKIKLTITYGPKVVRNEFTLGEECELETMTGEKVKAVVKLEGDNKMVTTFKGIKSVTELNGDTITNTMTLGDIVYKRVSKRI
# Experimental: (§1) Lipid displacement assays were adapted from previous publications, [30]. Briefly, lipids were used to displace ANS bound to rL-FABP to assess how 4-HNE modification affects affinity towards more biologic ligands. Lipid stocks were diluted in absolute ethanol (10 mM, 5 mM, 1 mM, 0.1 mM) and prepared in a nitrogen gas chamber. Using conditions similar to ANS binding, increasing concentrations of FAs [stearate (SA), oleate (OA), and LA] were titrated into a pre-equilibrated solution containing 45 µM ANS, 1 µM r-LFABP, and 50 mM tricine (pH 8.0). The sample was mixed for an additional 30 seconds and the excitation and emission of ANS was measured as mentioned, where the loss of fluorescence indicates affinity towards the lipid.
# (§2) For the displacement assays, one-site inhibition analysis of the data was utilized based on the fit of the data (instead of a two-site inhibition analysis) (eq2). Fluorescence counts that are inhibitable are denoted as bi, and residual counts are br. The concentration of OA, SA or LA is denoted as [FA]. The Hill constant, η, indicates the cooperativity between the binding sites, where if η >1 the sites are positively cooperative, η <1 the site are negatively cooperative, and if η = 1 the sites are non-cooperative. [drawing 2] (2)
# rL-FABP = biological target: T2, rL-FABP (Mus musculus, UniProt P12710); experiment: Displacement of ANS by fatty acids, WT rL-FABP; assay type: binding; conditions: for bi (counts inhibitable) / Ki: 45 µM ANS, 1 µM protein; for Ki: read-out: ki (inhibition constant)
# T2 construct: made in house; host or cells: Escherichia coli BL21 (DE3)
# T2 sequence (P12710 1-127): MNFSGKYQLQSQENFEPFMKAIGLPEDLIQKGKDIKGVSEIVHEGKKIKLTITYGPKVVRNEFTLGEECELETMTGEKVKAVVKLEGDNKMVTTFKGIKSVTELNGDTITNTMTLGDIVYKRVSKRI
# Experimental: as §1, §2
# apo rL-FABP = biological target: T3, apo rL-FABP (Mus musculus, UniProt P12710); experiment: Thermal denaturation of apo rL-FABP (UV-monitored); conditions: native apo rL-FABP, 0X 4-HNE
# T3 construct: made in house; host or cells: Escherichia coli BL21 (DE3)
# T3 sequence (P12710 1-127): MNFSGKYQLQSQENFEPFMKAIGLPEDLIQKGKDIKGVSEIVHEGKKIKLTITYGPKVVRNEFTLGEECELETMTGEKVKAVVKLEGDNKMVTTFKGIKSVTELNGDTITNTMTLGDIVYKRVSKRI
# Experimental: (§3) The stability of rL-FABP was assessed using UV-monitored heating experiments. Native (apo and holo) and 4-HNE modified (apo and holo) rL-FABP (0.8 mg/ml) was thermally denatured in 50 mM tricine buffer (pH 8.0) at 40–95°C over 1.5 hours in a 0.7 mL quartz cell (Starna Cells). Absorbance of rL-FABP was monitored at 260–360 nm using a Chirascan Plus Spectrometer (Applied Photophysics, Leatherhead, Surrey, UK) once per minute. Temperature was continuously ramped 1°C/min. Light scattering was recorded continuously at 360 nm to monitor protein aggregation. Temperature of aggregation (Tm) was determined using Global Analysis T-Ramp software provided by Applied Photophysics (Pro-Data Global3 v1.1.0) following baseline correction.
# holo rL-FABP = biological target: T4, holo rL-FABP (Mus musculus, UniProt P12710); experiment: Thermal denaturation of holo rL-FABP (UV-monitored); conditions: native holo rL-FABP (linoleic acid bound), semi-quantitative
# T4 construct: made in house; host or cells: Escherichia coli BL21 (DE3)
# T4 sequence (P12710 1-127): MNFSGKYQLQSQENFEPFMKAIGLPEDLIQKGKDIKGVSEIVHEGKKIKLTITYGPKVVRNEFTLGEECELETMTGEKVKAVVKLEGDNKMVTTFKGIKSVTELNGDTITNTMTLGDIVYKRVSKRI
# Experimental: as §3
Molecule,bi (counts inhibitable) (4-HNE adducted rL-FABP),Ki (4-HNE adducted rL-FABP),br (counts residual) (4-HNE adducted rL-FABP),n (hill coefficient) (4-HNE adducted rL-FABP),reduction of maximal binding to the FA by 4-HNE (4-HNE adducted rL-FABP),br (counts residual) (rL-FABP),n (hill coefficient) (rL-FABP),bi (counts inhibitable) (rL-FABP),Ki (rL-FABP),Tm (temperature of aggregation) (apo rL-FABP),Tm (temperature of aggregation) (holo rL-FABP)
CCCCCCCC/C=C\CCCCCCCC(=O)O [Oleic Acid],"457,600±26,400 AFU",0.69 ± 0.097 µM,"63,500±19,200 AFU",0.81±0.0999,32.7%,"171,600±19,800 AFU",2.31±0.29,"680,200±26,500000 AFU",5.88 ± 1.45 µM,–,–
CCCCCCCCCCCCCCCCCC(=O)O [Stearic Acid],"411,800±36,800 AFU",4.41 ± 1.66 µM,"81,300±30,500 AFU",2.74±0.37,41%,"145,800±14,400 AFU",2.75±0.264,"698,800±19,400 AFU",1.19 ± 0.13 µM,–,–
"apo rL-FABP: purified, delipidated recombinant mouse liver fatty acid-binding protein (unbound) (protein, UniProt P12710 1-127, looked up, delipidated) Fatty acid-binding protein, …: MNFSGKYQLQSQENFEPFMKAIGLPEDLIQKGKDIKGVSEIVHEGKKIKLTITYGPKVVRNEFTLGEECELETMTGEKVKAVVKLEGDNKMVTTFKGIKSVTELNGDTITNTMTLGDIVYKRVSKRI",–,–,–,–,–,–,–,–,–,71.82±0.09 °C,–
"holo rL-FABP: recombinant mouse L-FABP incubated with 1 mM linoleic acid (lipid-bound) (protein, UniProt P12710 1-127, looked up, linoleic acid bound) Fatty acid-binding protein, …: MNFSGKYQLQSQENFEPFMKAIGLPEDLIQKGKDIKGVSEIVHEGKKIKLTITYGPKVVRNEFTLGEECELETMTGEKVKAVVKLEGDNKMVTTFKGIKSVTELNGDTITNTMTLGDIVYKRVSKRI",–,–,–,–,–,–,–,–,–,–,86.09±0.57 °C
